{"source": "ChEMBL document CHEMBL1136756", "about": "“De novo design, synthesis, and evaluation of novel nonsteroidal phenanthrene ligands for the estrogen receptor” (J Med Chem, 2003)", "key": {"Estrogen receptor": {"molecular_target": "T1, Estrogen receptor (Homo sapiens, UniProt P03372)", "T1 sequence (P03372 whole entry)": "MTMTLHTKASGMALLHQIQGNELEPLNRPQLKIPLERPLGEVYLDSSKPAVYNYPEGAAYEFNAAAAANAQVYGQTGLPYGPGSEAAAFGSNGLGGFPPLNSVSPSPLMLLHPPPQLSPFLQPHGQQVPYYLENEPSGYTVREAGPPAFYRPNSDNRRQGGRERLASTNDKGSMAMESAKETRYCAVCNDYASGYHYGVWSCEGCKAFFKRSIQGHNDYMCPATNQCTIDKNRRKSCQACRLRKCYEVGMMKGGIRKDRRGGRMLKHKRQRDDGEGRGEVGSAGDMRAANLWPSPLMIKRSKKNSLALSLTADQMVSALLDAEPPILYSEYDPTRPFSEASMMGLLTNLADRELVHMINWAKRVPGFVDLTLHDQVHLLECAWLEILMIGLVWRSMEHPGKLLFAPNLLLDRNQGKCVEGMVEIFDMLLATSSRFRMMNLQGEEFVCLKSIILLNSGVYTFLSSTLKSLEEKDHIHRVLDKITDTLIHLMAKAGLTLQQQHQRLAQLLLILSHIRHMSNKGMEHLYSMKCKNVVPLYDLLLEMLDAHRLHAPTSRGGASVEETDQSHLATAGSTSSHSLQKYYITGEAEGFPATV", "description": "In vitro displacement of 0.5 nM [3H]17-beta-estradiol from human Estrogen receptor alpha"}, "Estrogen receptor beta": {"molecular_target": "Estrogen receptor beta (Homo sapiens, UniProt Q92731)", "sequence (Q92731 whole entry)": "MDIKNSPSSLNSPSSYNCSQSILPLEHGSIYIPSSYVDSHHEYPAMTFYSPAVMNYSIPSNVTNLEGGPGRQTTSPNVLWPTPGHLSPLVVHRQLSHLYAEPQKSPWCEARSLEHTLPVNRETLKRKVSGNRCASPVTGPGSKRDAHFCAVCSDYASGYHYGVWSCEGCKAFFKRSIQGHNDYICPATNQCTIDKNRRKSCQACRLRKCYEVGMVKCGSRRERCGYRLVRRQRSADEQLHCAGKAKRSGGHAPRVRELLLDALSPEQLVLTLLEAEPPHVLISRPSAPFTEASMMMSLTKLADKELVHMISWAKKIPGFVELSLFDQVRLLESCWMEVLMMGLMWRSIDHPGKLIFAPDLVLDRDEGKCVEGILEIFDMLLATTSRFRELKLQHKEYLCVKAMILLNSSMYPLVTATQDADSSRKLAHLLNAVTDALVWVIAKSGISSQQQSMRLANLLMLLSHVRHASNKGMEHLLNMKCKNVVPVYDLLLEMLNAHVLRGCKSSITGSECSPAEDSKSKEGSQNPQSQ", "description": "In vitro displacement of 0.5 nM [3H]17-beta-estradiol from human Estrogen receptor beta"}}, "data": [{"compound": "C=C(C)c1ccc2c(c1)c(-c1ccc(OCCN3CCCCC3)cc1)cc1cc(O)cc(C)c12", "values": [{"measurement": "Ki", "setting": "Estrogen receptor", "value": 290, "unit": "nM"}, {"measurement": "Ki", "setting": "Estrogen receptor beta", "value": 180, "unit": "nM"}]}, {"compound": "Cc1cc(O)cc2cc(-c3ccc(OCCN4CCCCC4)cc3)c3cc(C(=O)C(C)C)ccc3c12", "values": [{"measurement": "Ki", "setting": "Estrogen receptor", "value": 490, "unit": "nM"}, {"measurement": "Ki", "setting": "Estrogen receptor beta", "value": "> 1000", "unit": "nM"}]}, {"compound": "CC(=O)c1ccc2c(c1)c(-c1ccc(OCCN3CCCCC3)cc1)cc1cc(O)cc(C)c12", "values": [{"measurement": "Ki", "setting": "Estrogen receptor", "value": "> 1000", "unit": "nM"}, {"measurement": "Ki", "setting": "Estrogen receptor beta", "value": 630, "unit": "nM"}]}, {"compound": "CCc1ccc2c(c1)C(c1ccc(OCCN3CCCCC3)cc1)Cc1cc(O)cc(C)c1-2", "note": "(stereo unspecified)", "values": [{"measurement": "Ki", "setting": "Estrogen receptor", "value": 8.69, "unit": "nM"}, {"measurement": "Ki", "setting": "Estrogen receptor beta", "value": 190, "unit": "nM"}]}, {"compound": "Cc1cc(O)cc2cc(-c3ccc(OCCN4CCCCC4)cc3)c3cc(C(C)O)ccc3c12", "note": "(stereo unspecified)", "values": [{"measurement": "Ki", "setting": "Estrogen receptor beta", "value": 190, "unit": "nM"}]}, {"compound": "CC(C)=C(C)c1ccc2c(c1)c(-c1ccc(OCCN3CCCCC3)cc1)cc1cc(O)cc(C)c12", "values": [{"measurement": "Ki", "setting": "Estrogen receptor", "value": 210, "unit": "nM"}, {"measurement": "Ki", "setting": "Estrogen receptor beta", "value": 200, "unit": "nM"}]}]}
